Laboratory results from patent US12338220B2, “Antiviral pyrazolopiridinone compounds” (Novartis AG, priority 2019, dated 2025).
Where two headings read alike, the source gives them in different places.

Columns and labels:
CMV-polymerase = CMV-polymerase (Human cytomegalovirus (strain AD169) (HHV-5) (Human herpesvirus 5), UniProt P08546); experiment: biochemical
CMV = experiment: microbe, parasite or virus in culture; format: cell-based; conditions: Human betaherpesvirus 5, 72 h, read-out: CMV-Luc Cellular EC50, NN-NHDF cells, MOI 1, 72 hrs
HSV-polymerase = HSV-polymerase (Human herpesvirus 1 (strain 17) (HHV-1) (Human herpes simplex virus 1), UniProt P04293); experiment: biochemical
[1] = CMV-polymerase Biochemical IC50
[2] = read-out: CMV-polymerase Biochemical IC50
[3] = read-out: HSV-polymerase Biochemical IC50

| SMILES | IC50 (CMV-polymerase; [1]) | EC50 (CMV) | IC50 (HSV-polymerase) | IC50 (CMV-polymerase; [2]) | IC50 (HSV-polymerase; [3]) |
| --- | --- | --- | --- | --- | --- |
| [2H]C([2H])(O)C(C)(C)S(=O)(=O)C1(CN2CCc3c(C(=O)NCc4ccc(C#N)cc4)nn(C)c3C2=O)CC1 [Example 56, N-(4-Cyanobenzyl)-6-((1-((1-hydroxy-2-methylpropan-2-yl-1,1-d2)sulfonyl)cyclopropyl)methyl)-1-methyl-7-oxo-4,5,6,7-tetrahydro-1H-pyrazolo[3,4-c]pyridine-3-carboxamide] | 1 nM | 21 nM | 17 nM |  |  |
| Cn1nc(C(=O)NCc2ccc(C#N)cc2)c2ccn(CC3(S(=O)(=O)C4CC4)CC3)c(=O)c21 [Example 1, N-(4-cyanobenzyl)-6-((1-(cyclopropylsulfonyl)cyclopropyl)methyl)-1-methyl-7-oxo-6,7-dihydro-1H-pyrazolo[3,4-c]pyridine-3-carboxamide] |  | 124 nM | 269 nM | 10 nM |  |
| CC(O)Cn1nc(C(=O)NCc2ccc(C#N)cc2)c2c1C(=O)N(CC1(S(=O)(=O)C3CC3)CC1)CC2 (single isomer, unassigned) [Example 225, (R)- or (S)-N-(4-cyanobenzyl)-6-((1-(cyclopropylsulfonyl)cyclopropyl)methyl)-1-(2-hydroxypropyl)-7-oxo-4,5,6,7-tetrahydro-1H-pyrazolo[3,4-c]pyridine-3-carboxamide] | 4 nM | 63 nM | 90 nM |  |  |
| CC(O)COCC(C)(C)S(=O)(=O)C1(CN2CCc3c(C(=O)NCc4ccc(C#N)cc4)nn(C)c3C2=O)CC1 (single isomer, unassigned) [Example 90, (R)- or (S)-N-(4-Cyanobenzyl)-6-((1-((1-(2-hydroxypropoxy)-2-methylpropan-2-yl)sulfonyl)cyclopropyl)methyl)-1-methyl-7-oxo-4,5,6,7-tetrahydro-1H-pyrazolo[3,4-c]pyridine-3-carboxamide] | 7 nM | 58 nM | 97 nM |  |  |
| Cn1nc(C2=NO[C@H](c3ccc(C#N)cc3)C2)c2c1C(=O)N(CC1(S(=O)(=O)C(C)(C)CO)CC1)CC2 [Example 108, (S)-4-(3-(6-((1-((1-hydroxy-2-methylpropan-2-yl)sulfonyl)cyclopropyl)methyl)-1-methyl-7-oxo-4,5,6,7-tetrahydro-1H-pyrazolo[3,4-c]pyridin-3-yl)-4,5-dihydroisoxazol-5-yl)benzonitrile] |  | 32 nM |  | 1 nM | 47 nM |
| Cn1nc(C(=O)NCc2ccc(C#N)cc2)c2ccn(CC3(S(C)(=O)=O)CC3)c(=O)c21 [Example 2, N-(4-Cyanobenzyl)-1-methyl-6-((1-(methylsulfonyl)cyclopropyl)methyl)-7-oxo-6,7-dihydro-1H-pyrazolo[3,4-c]pyridine-3-carboxamide] |  | 536 nM | 1880 nM | 27 nM |  |
| Cn1nc(C(=O)NCc2ccc(Cl)cc2)c2c1C(=O)N(CC1(S(=O)(=O)C3(COCCN)CC3)CC1)CC2 [Example 95, 6-((1-((1-((2-Aminoethoxy)methyl)cyclopropyl)sulfonyl)cyclopropyl)methyl)-N-(4-chlorobenzyl)-1-methyl-7-oxo-4,5,6,7-tetrahydro-1H-pyrazolo[3,4-c]pyridine-3-carboxamide] |  | 11 nM | 25 nM | 2 nM |  |
| C[C@H](NC(=O)c1nn(C)c2c1CCN(CC1(S(=O)(=O)C(C)(CO)CO)CC1)C2=O)c1ccc(Cl)cc1 [Example 177, (S)-N-(1-(4-Chlorophenyl)ethyl)-6-((1-((1,3-dihydroxy-2-methylpropan-2-yl)sulfonyl)cyclopropyl)methyl)-1-methyl-7-oxo-4,5,6,7-tetrahydro-1H-pyrazolo[3,4-c]pyridine-3-carboxamide] |  | 168 nM | 122 nM | 4 nM |  |
| Cn1nc(C(=O)NCc2ccc(C#N)cc2)c2c1C(=O)N(CC1(S(=O)(=O)N3CC(O)C3)CC1)CC2 [Example 128, N-(4-Cyanobenzyl)-6-((1-((3-hydroxyazetidin-1-yl)sulfonyl)cyclopropyl)methyl)-1-methyl-7-oxo-4,5,6,7-tetrahydro-1H-pyrazolo[3,4-c]pyridine-3-carboxamide] | 5 nM | 94 nM | 137 nM |  |  |
| Cn1nc(C2=NO[C@@H](c3ccc(C#N)cc3)C2)c2c1C(=O)N(CC1(S(=O)(=O)C(C)(C)CO)CC1)CC2 [Example 107, (R)-4-(3-(6-((1-((1-Hydroxy-2-methylpropan-2-yl)sulfonyl)cyclopropyl)methyl)-1-methyl-7-oxo-4,5,6,7-tetrahydro-1H-pyrazolo[3,4-c]pyridin-3-yl)-4,5-dihydroisoxazol-5-yl)benzonitrile] |  | > 10000 nM |  | 872 nM | > 25000 nM |
| CC(=O)OCC(C)(C)S(=O)(=O)C1(CN2CCc3c(C(=O)NCc4ccc(C#N)cc4)nn(C)c3C2=O)CC1 [Example 57, 2-((1-((3-((4-Cyanobenzyl)carbamoyl)-1-methyl-7-oxo-4,5-dihydro-1H-pyrazolo[3,4-c]pyridin-6(7H)-yl)methyl)cyclopropyl)sulfonyl)-2-methylpropyl acetate] |  | 22 nM | 35 nM | 1 nM |  |
| C[C@@H](NC(=O)c1nn(C)c2c1CCN(CC1(S(=O)(=O)C(C)(CO)CO)CC1)C2=O)c1ccc(Cl)cc1 [Example 178, (R)-N-(1-(4-Chlorophenyl)ethyl)-6-((1-((1,3-dihydroxy-2-methylpropan-2-yl)sulfonyl)cyclopropyl)methyl)-1-methyl-7-oxo-4,5,6,7-tetrahydro-1H-pyrazolo[3,4-c]pyridine-3-carboxamide] |  | 9720 nM | 8060 nM | 240 nM |  |
| Cn1nc(C(=O)NCc2ccc(C#N)cc2)c2c1C(=O)N(CC1(S(=O)(=O)C(F)F)CC1)CC2 [Example 38, N-(4-Cyanobenzyl)-6-((1-((difluoromethyl)sulfonyl)cyclopropyl)methyl)-1-methyl-7-oxo-4,5,6,7-tetrahydro-1H-pyrazolo[3,4-c]pyridine-3-carboxamide] |  | 607 nM | 784 nM | 14 nM |  |
| Cn1nc(C(=O)NCc2ccc(C#N)cc2)c2c1C(=O)N(CC1(S(=O)(=O)C(C)(C)COC(F)CO)CC1)CC2 (single isomer, unassigned) [Example 80, (R)- or (S)-N-(4-Cyanobenzyl)-6-((1-((1-(1-fluoro-2-hydroxyethoxy)-2-methylpropan-2-yl)sulfonyl)cyclopropyl)methyl)-1-methyl-7-oxo-4,5,6,7-tetrahydro-1H-pyrazolo[3,4-c]pyridine-3-carboxamide] | 6 nM | 36 nM | 67 nM |  |  |
| Cc1cc(NS(=O)(=O)C2(CN3CCc4c(C(=O)NCc5ccc(C#N)cc5)nn(C)c4C3=O)CC2)no1 [Example 165, N-(4-cyanobenzyl)-1-methyl-6-((1-(N-(5-methylisoxazol-3-yl)sulfamoyl)cyclopropyl)methyl)-7-oxo-4,5,6,7-tetrahydro-1H-pyrazolo[3,4-c]pyridine-3-carboxamide] |  | 136 nM | 14 nM | 1 nM |  |
| CC(O)CC(C)(C)S(=O)(=O)C1(CN2CCc3c(C(=O)NCc4ccc(C#N)cc4)nn(C)c3C2=O)CC1 (single isomer, unassigned) [Example 115, (R)- or (S)-N-(4-Cyanobenzyl)-6-((1-((4-hydroxy-2-methylpentan-2-yl)sulfonyl)cyclopropyl)methyl)-1-methyl-7-oxo-4,5,6,7-tetrahydro-1H-pyrazolo[3,4-c]pyridine-3-carboxamide] | 3 nM | 59 nM | 71 nM |  |  |
| Cn1nc(C(=O)NCc2ccc(C#N)cc2)c2c1C(=O)N(CC1(S(=O)(=O)C3COC3)CC1)CC2 [Example 168, N-(4-cyanobenzyl)-1-methyl-6-((1-(oxetan-3-ylsulfonyl)cyclopropyl)methyl)-7-oxo-4,5,6,7-tetrahydro-1H-pyrazolo[3,4-c]pyridine-3-carboxamide] | 4 nM | 72 nM |  |  | 97 nM |
| CC1Cc2c(C(=O)NCc3ccc(C#N)cc3)nn(C)c2C(=O)N1CC1(S(C)(=O)=O)CC1 (single isomer, unassigned) [Example 42, (R)- or (S)-N-(4-cyanobenzyl)-1,5-dimethyl-6-((1-(methylsulfonyl)cyclopropyl)methyl)-7-oxo-4,5,6,7-tetrahydro-1H-pyrazolo[3,4-c]pyridine-3-carboxamide] | 149 nM |  | 2000 nM |  |  |
| Cn1nc(C(=O)NCc2ccc(C#N)cc2)c2c1C(=O)N(CC1(S(=O)(=O)C(C)(C)COC(F)CO)CC1)CC2 (single isomer, unassigned) [Example 81, (R)- or (S)-N-(4-cyanobenzyl)-6-((1-((1-(1-fluoro-2-hydroxyethoxy)-2-methylpropan-2-yl)sulfonyl)cyclopropyl)methyl)-1-methyl-7-oxo-4,5,6,7-tetrahydro-1H-pyrazolo[3,4-c]pyridine-3-carboxamide] | 3 nM |  | 46 nM |  |  |
| Cn1nc(C(=O)NCc2ccc(C#N)cc2)c2c1C(=O)N(CC1(S(=O)(=O)C(C)(C)C(O)C(C)(C)N)CC1)CC2 (single isomer, unassigned) [Example 212, (R)- or (S)-6-((1-((4-Amino-3-hydroxy-2,4-dimethylpentan-2-yl)sulfonyl)cyclopropyl)methyl)-N-(4-cyanobenzyl)-1-methyl-7-oxo-4,5,6,7-tetrahydro-1H-pyrazolo[3,4-c]pyridine-3-carboxamide] | 3 nM |  | 39 nM |  |  |
| CC(O)COCC(C)(C)S(=O)(=O)C1(CN2CCc3c(C(=O)NCc4ccc(C#N)cc4)nn(C)c3C2=O)CC1 (single isomer, unassigned) [Example 91, (R)- or (S)-N-(4-Cyanobenzyl)-6-((1-((1-(2-hydroxypropoxy)-2-methylpropan-2-yl)sulfonyl)cyclopropyl)methyl)-1-methyl-7-oxo-4,5,6,7-tetrahydro-1H-pyrazolo[3,4-c]pyridine-3-carboxamide] | 5 nM |  | 69 nM |  |  |
